In the SangsterLogP compilation:

Experiment: method code SF-AS, from DOI: 10.1002/(sici)1521-3897(199907)341:5<499::aid-prac499>3.0.co;2-7
Conditions: pH 7.4

`Nc1nnnn1-c1cccc2ccccc12` gave a logD of 1.72.

With `Nc1nnnn1-c1ccc(Cl)cc1` the logD was 1.41.

Work on `Nc1nnnn1-c1ccc2ccccc2c1` yielded a logD of 2.08.

`Nc1nnnn1-c1ccc(Cl)cc1Cl` showed a logD of 1.63.

For `Nc1nnnn1-c1ccc([N+](=O)[O-])cc1`, the logD was 0.77.

Molecule `Cc1ccccc1-n1nnnc1N` has a logD of 0.93.

With `Nc1nnnn1-c1ccc(Cl)c(Cl)c1` the logD was 2.06.

`CCOc1ccc(-n2nnnc2N)cc1` showed a logD of 1.32.

In the case of `Nc1nnnn1-c1cc(Cl)c(Cl)cc1Cl`, the logD is reported as 2.3.

Molecule `Cc1ccc(C)c(-n2nnnc2N)c1` has a logD of 1.46.

Molecule `Nc1nnnn1-c1cccc(O)c1` has a logD of 0.56.

`Nc1nnnn1-c1ccc(O)cc1` gave a logD of 0.33.

With `Nc1nnnn1-c1ccccc1Cl` the logD was 0.87.

`COc1ccc(-n2nnnc2N)cc1` gave a logD of 0.85.

Molecule `Nc1nnnn1-c1ccccc1` has a logD of 0.69.

For `Nc1nnnn1-c1ccc(Br)cc1`, the logD was 1.64.

In the case of `Nc1nnnn1-c1ccc(F)cc1`, the logD is reported as 0.75.

For `Cc1cccc(-n2nnnc2N)c1`, the logD was 1.24.

In the case of `Nc1nnnn1-c1cc(Cl)ccc1Cl`, the logD is reported as 1.61.

With `Nc1nnnn1-c1cccc(Cl)c1` the logD was 1.44.

In the case of `Nc1nnnn1-c1cccc([N+](=O)[O-])c1`, the logD is reported as 0.67.

`COc1ccccc1-n1nnnc1N` showed a logD of 0.56.

Work on `Cc1ccc(-n2nnnc2N)cc1Cl` yielded a logD of 1.89.

Work on `Nc1nnnn1-c1c(Cl)cccc1Cl` yielded a logD of 1.56.
